Results from US20080249072A1, “Use of Low Dose Chemically Modified Tetracylines to Reduce Inflammatory Mediators” (priority 2005, published 2008).

Experiments:
Assay type in all cases: cell-based
[1] = system: Macrophage Chemotactic Protein-1 (MCP-1); test: MCP-1 production by human monocytes/macrophages stimulated by CRP/Oxid. LDL complex (ELISA)
Procedure: (§1) Experiments were conducted to compare the efficacy of two tetracycline compounds, doxycycline and CMT-3, on reducing the production of inflammatory mediators, TNF-α, IL-6 and MCP-1 produced by monocytes/macrophages. Doxycycline is a well known tetracycline antibiotic. CMT-3 is a non-antibacterial 4-dedimethylamino derivative of sancycline. See above. The experiments utilized a cell culture stimulated by biologic factors that cause inflammation, such as the inflammation seen in, for example, coronary and cerebro-vascular disease. Units of human blood were obtained and peripheral blood monocytes were separated by Ficoll-Hypaque gradient centrifugation. Viable human monocytes/macrophages were incubated in cell culture under standard sterile conditions on plastic in RPMI media at 37° C. for 18 hours. The monocytes/macrophages were incubated under the following experimental conditions: • (i) cells alone; • (ii) cells stimulated by c-reactive protein (CRP)/Oxidized LDL cholesterol complex (CRP/Oxid. LDL complex), no tetracycline present; • (iii) cells stimulated by CRP/Oxid. LDL complex with doxycycline at concentrations of 0.7 μg/ml, 5.0 μg/ml and 10.0 μg/ml; and. • (iv) cells stimulated by CRP/Oxid. LDL complex with CMT-3 at concentrations of 0.5 μg/ml, 1.5 μg/ml and 5.0 μg/ml. CRP/Oxid. LDL complex stimulates monocytes/macrophages to secrete excessive levels of cytokines (e.g. IL-1, IL-6, TNF-α, and MCP-1). Excessive levels of cytokines result in the rupture of atheroscleromatus plaques lining coronary and cerebral arteries causing thrombosis, heart attack and stroke. At the end of an 18 hour incubation, the conditioned media were collected and analyzed by ELISA for inflammatory mediators IL-6, TNF-α and MCP-1. The results are described in examples 1-3.

[2] = system: Tumor Necrosis Factor-α (TNF-α); test: TNF-α production by human monocytes/macrophages stimulated by CRP/Oxid. LDL complex (ELISA)
Procedure: as §1

Interleukin-6 (IL-6) = test: IL-6 production by human monocytes/macrophages stimulated by CRP/Oxid. LDL complex (ELISA)
Procedure: as §1

[3] = highest concentration, 5.0 μg/ml
[4] = all three concentrations tested (0.5, 1.5 and 5.0 μg/ml)

| Compound | MCP-1 production at 1.5 μg/ml higher than at 0.5 μg/ml ([1]; 1.5 μg/ml versus 0.5 μg/ml) [%] | effectiveness in reducing MCP-1 among concentrations tested [1, 3] | TNF-α production at 1.5 μg/ml higher than at 0.5 μg/ml ([2]; 1.5 μg/ml versus 0.5 μg/ml) | effect on TNF-α production [2, 4] | effectiveness in reducing TNF-α among concentrations tested [2, 3] | IL-6 production at 1.5 μg/ml higher than at 0.5 μg/ml (Interleukin-6 (IL-6); 1.5 μg/ml versus 0.5 μg/ml) [%] | effect on IL-6 production (Interleukin-6 (IL-6); [4]) | effectiveness in reducing IL-6 among concentrations tested (Interleukin-6 (IL-6); [3]) | inhibition of MCP-1 production ([1]; 0.5 μg/ml) | inhibition of MCP-1 production ([1]; 1.5 μg/ml) | inhibition at 5 µg/mL ([1]; Homo sapiens, Macrophage, 5.0 μg/ml, read-out: inhibition of production (printed TNF-α, in MCP-1 example)) [%] | reduction of TNF-α production ([2]; 10.0 μg/ml, 18 hour incubation) | inhibition at 0.7 µg/mL ([2]; Homo sapiens, 0.7 μg/ml, 18 hour incubation) [%] | inhibition at 5 µg/mL ([2]; Homo sapiens, 5.0 μg/ml, 18 hour incubation) [%] |
| --- | --- | --- | --- | --- | --- | --- | --- | --- | --- | --- | --- | --- | --- | --- |
| NC(=O)C1=C(O)C[C@@H]2C[C@@H]3Cc4cccc(O)c4C(=O)C3=C(O)[C@]2(O)C1=O [CMT-3, 6-demethyl-6-deoxy-4-dedimethylaminotetracycline] | 16 | most effective | about 50% | reduced TNF-α production | most effective | 43 | reduced IL-6 production | most effective | – | – | – | – | – | – |
| C[C@H]1c2cccc(O)c2C(=O)C2=C(O)[C@]3(O)C(=O)C(C(N)=O)=C(O)[C@@H](N(C)C)[C@@H]3[C@@H](O)[C@@H]21 [doxycycline, reference compound] | – | – | – | – | – | – | – | – | did not inhibit | did not inhibit | ~68 | about 94% | ~14 | ~37 |
